Measurements published in patent US9187465B2, “Oxazole tyrosine kinase inhibitors” (Sareum Limited, priority 2007, dated 2015).

Columns and labels:
[1] = target: T1, human FLT4 (Homo sapiens, UniProt P35916); test: FLT4 kinase assay (DELFIA enzyme inhibition); assay type: biochemical; conditions: read-out: FLT4 IC50
T1 construct: a construct expressing the human FLT4 (789-1207) with an amino terminal GST tag; host or cells: Sf9 insect cells (baculovirus)
Outline: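 Read-out is DELFIA: biotinylated MET Tyr1253-derived peptide captured on Neutravidin, phosphotyrosine detected by Eu-antibody time-resolved fluorescence. Enzyme is Sf9-expressed GST-FLT4 (789-1207), reacting 30 min at room temperature before EDTA stop. IC50 derived from plotted % inhibition.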

[2] = target: T2, human FLT3 (Homo sapiens, UniProt P36888); test: FLT3 kinase assay (DELFIA enzyme inhibition); assay type: biochemical
T2 construct: a construct expressing the human FLT3 (564-993) with an amino terminal GST tag; host or cells: Sf9 insect cells (baculovirus)
T2 sequence (P36888 564-993): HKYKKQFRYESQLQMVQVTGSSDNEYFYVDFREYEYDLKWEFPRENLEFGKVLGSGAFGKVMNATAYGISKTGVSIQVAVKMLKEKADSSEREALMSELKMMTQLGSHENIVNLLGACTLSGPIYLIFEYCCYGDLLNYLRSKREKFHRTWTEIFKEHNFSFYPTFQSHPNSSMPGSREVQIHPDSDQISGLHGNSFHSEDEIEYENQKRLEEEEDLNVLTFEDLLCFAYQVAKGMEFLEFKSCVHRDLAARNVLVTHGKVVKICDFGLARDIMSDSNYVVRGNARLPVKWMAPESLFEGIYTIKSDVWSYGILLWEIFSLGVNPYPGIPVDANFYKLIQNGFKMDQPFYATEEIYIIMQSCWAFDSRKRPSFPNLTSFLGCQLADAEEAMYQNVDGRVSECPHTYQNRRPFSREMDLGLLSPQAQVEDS
Outline: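 GST-tagged human FLT3 (564-993), expressed in sf9 cells, phosphorylated a biotinylated Gastrin Precursor (Tyr 87)-derived peptide for 30 min at room temperature before EDTA stop. The captured peptide was detected by Eu-labelled anti-phosphotyrosine DELFIA time-resolved fluorescence. IC50 was derived from % inhibition curves.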

[3] = target: T3, human Aurora A (Homo sapiens, UniProt O14965); test: Aurora A kinase assay (DELFIA enzyme inhibition); assay type: biochemical; conditions: read-out: Aurora A IC50
T3 construct: Histidine tag (N); host or cells: Sf9 insect cells (baculovirus)
T3 sequence (O14965 1-403): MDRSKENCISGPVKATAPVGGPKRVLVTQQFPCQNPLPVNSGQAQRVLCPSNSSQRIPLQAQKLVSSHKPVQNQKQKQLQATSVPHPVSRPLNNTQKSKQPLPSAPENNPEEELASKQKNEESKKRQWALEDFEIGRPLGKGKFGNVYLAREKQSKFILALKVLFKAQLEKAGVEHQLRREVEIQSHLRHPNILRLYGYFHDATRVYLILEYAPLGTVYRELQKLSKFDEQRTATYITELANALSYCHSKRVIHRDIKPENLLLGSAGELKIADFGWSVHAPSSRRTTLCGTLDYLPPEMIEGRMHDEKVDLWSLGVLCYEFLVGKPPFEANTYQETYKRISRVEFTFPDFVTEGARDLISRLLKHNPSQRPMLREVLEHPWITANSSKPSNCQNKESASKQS
Outline: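 DELFIA read-out (time-resolved Eu fluorescence, 620 nm emission) after Neutravidin capture of biotinylated peptide substrate and antibody detection. Reaction: Ni-agarose-purified Aurora A, 30 min at room temperature, stopped with 100 mM EDTA.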

[4] = tested on: HCT116 cells; test: Anti-proliferative activity, Alamar Blue assay, HCT116; assay type: cell-based; conditions: Homo sapiens, HCT-116, 72 hours, read-out: cell proliferation IC50
Procedure: The anti-proliferative activities of compounds of the invention are determined by measuring the ability of the compounds to inhibition of cell growth in a number of cell lines. Inhibition of cell growth is measured using the Alamar Blue assay (Nociari et al., Journal of Immunological Methods (1998) 213, 157-167). The method is based on the ability of viable cells to reduce resazurin to its fluorescent product resorufin. For each proliferation assay cells are plated onto 96 well plates and allowed to recover for 16 hours prior to the addition of inhibitor compounds for a further 72 hours. At the end of the incubation period 10% (v/v) Alamar Blue is added and incubated for a further 6 hours prior to determination of fluorescent product at Excitation 535 nm and Emission 590 nm. In the case of the non-proliferating cell assay cells are maintained at confluence for 96 hour prior to the addition of inhibitor compounds for a further 72 hours. The number of viable cells is determined by Alamar Blue assay as before. All cell lines are obtained from ECACC (European Collection of cell Cultures).

T1 sequence (P35916 789-1207): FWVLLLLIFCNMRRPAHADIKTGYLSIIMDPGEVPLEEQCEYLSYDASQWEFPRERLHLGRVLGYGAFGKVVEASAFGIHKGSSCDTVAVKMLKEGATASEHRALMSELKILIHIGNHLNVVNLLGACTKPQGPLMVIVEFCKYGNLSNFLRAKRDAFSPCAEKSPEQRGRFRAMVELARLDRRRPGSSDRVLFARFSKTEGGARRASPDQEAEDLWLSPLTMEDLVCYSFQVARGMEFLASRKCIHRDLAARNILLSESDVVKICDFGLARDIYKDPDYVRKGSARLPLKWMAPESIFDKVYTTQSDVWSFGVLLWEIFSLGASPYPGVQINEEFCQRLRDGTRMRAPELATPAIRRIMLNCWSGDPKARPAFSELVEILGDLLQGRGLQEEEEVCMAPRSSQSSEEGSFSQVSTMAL

SMILES | IC50 [1] [µM] | IC50 [2] [µM] | IC50 [3] [µM] | IC50 [4] [µM]
CC(=O)N1CCN(c2ccc(Nc3oc(-c4c(F)cccc4F)nc3C(N)=O)cc2)CC1 [Example Q-9, 5-(4-(4-acetylpiperazin-1-yl)phenylamino)-2-(2,6-difluorophenyl)oxazole-4-carboxamide] | < 10 | < 10 | < 10 | < 10
NC(=O)c1nc(-c2c(F)cccc2F)oc1-c1ccc(OCCN2CCOCC2)cc1 [Example F-13, 2-(2,6-difluorophenyl)-5-(4-(2-morpholinoethoxy)phenyl)oxazole-4-carboxamide] | < 10 | < 10 | < 10 | < 10
CNC(=O)N1CCN(c2ccc(Nc3oc(-c4c(F)cccc4F)nc3C(N)=O)cc2)CC1 [Example J-3, 4-(4-(4-carbamoyl-2-(2,6-difluorophenyl)oxazol-5-ylamino)phenyl)-N-methylpiperazine-1-carboxamide] | < 10 | < 10 | < 10 | < 10
NC(=O)c1nc(-c2c(F)cccc2F)oc1Nc1ccc(OCCN2CCOCC2)cc1 [Example Q-8, 2-(2,6-difluorophenyl)-5-(4-(2-morpholinoethoxy)phenylamino)oxazole-4-carboxamide] | < 10 | < 10 | < 10 | < 10
NC(=O)c1nc(-c2c(F)cccc2F)oc1Nc1ccc(S(=O)(=O)N2CCOCC2)cc1 [Example Q-29, 2-(2,6-difluorophenyl)-5-(4-(morpholinosulfonyl)phenylamino)oxazole-4-carboxamide] | < 10 | < 10 | < 10 | –
COc1ccc(-c2oc(Nc3ccccc3C)nc2C(N)=O)cc1 [Example R-5, 2-(o-toluidino)-5-(4-methoxyphenyl)oxazole-4-carboxamide] | < 10 | < 10 | < 10 | –
NC(=O)c1nc(-c2c(F)cccc2F)oc1Nc1ccc(-c2nnn[nH]2)cc1 [Example Q-34, 5-(4-(1H-tetrazol-5-yl)phenylamino)-2-(2,6-difluorophenyl)oxazole-4-carboxamide] | < 10 | < 10 | < 10 | –
COc1ccc(-c2oc(-c3ccccc3F)nc2C(N)=O)cc1 [Example M-3, 2-(2-fluorophenyl)-5-(4-methoxyphenyl)oxazole-4-carboxamide] | < 10 | < 100 | < 100 | –
NC(=O)c1nc(-c2c(F)cccc2F)oc1Nc1ccc(C(=O)NC2CCNCC2)cc1 [Example U-21, 2-(2,6-difluorophenyl)-5-(4-(piperidin-4-ylcarbamoyl)phenylamino)oxazole-4-carboxamide] | < 10 | < 10 | < 10 | –
Cc1cccc(C)c1-c1nc(C(N)=O)c(Nc2ccc(N3CCNCC3)cc2)o1 [Example Q-37, 2-(2,6-dimethylphenyl)-5-(4-(piperazin-1-yl)phenylamino)oxazole-4-carboxamide] | < 10 | < 10 | < 10 | –
CN(C)CCOc1ccc(-c2oc(-c3c(F)cccc3F)nc2C(N)=O)cc1 [Example F-15, 2-(2,6-difluorophenyl)-5-(4-(2-(dimethylamino)ethoxy)phenyl)oxazole-4-carboxamide] | < 10 | < 10 | < 10 | –
NC(=O)c1nc(-c2c(F)cccc2F)oc1Nc1ccc(NC(=O)C2CCCNC2)cc1 (stereo not drawn) [Example V-4, N-(4-(4-carbamoyl-2-(2,6-difluorophenyl)oxazol-5-ylamino)phenyl)piperidine-3-carboxamide] | < 10 | < 10 | < 10 | –
CN1CCN(C(=O)c2ccc(Nc3oc(-c4c(F)cccc4F)nc3C(N)=O)cc2)[C@@H](CO)C1 [Example U-26, (R)-2-(2,6-difluorophenyl)-5-(4-(3-(hydroxymethyl)-1-methylpiperazine-4-carbonyl)phenylamino)oxazole-4-carboxamide] | < 10 | < 10 | < 10 | –
CN1CCN(c2ccc(Nc3oc(-c4c(F)cccc4F)nc3C(N)=O)cc2)CC1 [Example Q-7, 2-(2,6-difluorophenyl)-5-(4-(4-methylpiperazin-1-yl)phenylamino)oxazole-4-carboxamide] | < 10 | < 10 | < 10 | < 10
COc1ccccc1Nc1nc(C(N)=O)c(-c2ccc(N3CCNCC3)cc2)o1 [Example R-11, 2-(2-methoxyphenylamino)-5-(4-(piperazin-1-yl)phenyl)oxazole-4-carboxamide] | < 10 | < 10 | < 10 | < 10
NC(=O)c1nc(-c2c(F)cccc2F)oc1-c1ccc(OCC(O)CN2CCC(O)CC2)cc1 (stereo not drawn) [Example T-4, 2-(2,6-difluorophenyl)-5-(4-(2-hydroxy-3-(4-hydroxypiperidin-1-yl)propoxy)phenyl)oxazole-4-carboxamide] | < 10 | < 10 | < 10 | –
CN(CCOc1ccc(-c2oc(-c3c(F)cccc3F)nc2C(N)=O)cc1)Cc1ccccc1 [Example S-11, 5-(4-(2-(benzyl(methyl)amino)ethoxy)phenyl)-2-(2,6-difluorophenyl)oxazole-4-carboxamide] | < 10 | < 10 | < 100 | –
NC(=O)c1nc(-c2ccccc2F)oc1-c1ccc(OCCN2CCOCC2)cc1 [Example F-27, 2-(2-fluorophenyl)-5-(4-(2-morpholinoethoxy)phenyl)oxazole-4-carboxamide] | < 10 | < 10 | < 10 | –
CN1CCC(NC(=O)c2ccc(Nc3oc(-c4c(F)cccc4F)nc3C(N)=O)cc2)CC1 [Example U-18, 5-(4-((1-methylpiperidin-4-yl)carbamoyl)phenylamino)-2-(2,6-difluorophenyl) oxazole-4-carboxamide] | < 10 | < 10 | < 10 | –
NC(=O)c1nc(-c2c(F)cccc2F)oc1-c1ccc(CN2CCNCC2)cc1 [Example G-1, 2-(2,6-difluorophenyl)-5-(4-(piperazin-1-ylmethyl)phenyl)oxazole-4-carboxamide] | < 10 | < 100 | < 10 | –
CN1CCN(CCOc2ccc(-c3oc(-c4c(F)cccc4F)nc3C(N)=O)cc2)CC1 [Example S-1, 2-(2,6-difluorophenyl)-5-(4-(2-(4-methylpiperazin-1-yl)ethoxy)phenyl)oxazole-4-carboxamide] | < 10 | < 100 | < 10 | –
NC(=O)c1nc(Nc2ccc3cn[nH]c3c2)oc1-c1ccc(N2CCNCC2)cc1 [Example R-16, 2-(1H-indazol-6-ylamino)-5-(4-(piperazin-1-yl)phenyl)oxazole-4-carboxamide] | < 10 | < 10 | < 10 | –
CN1CCN(C(=O)c2ccc(Nc3oc(-c4c(F)cccc4F)nc3C(N)=O)cc2)[C@H](CO)C1 [Example U-27, (S)-2-(2,6-difluorophenyl)-5-(4-(3-(hydroxymethyl)-1-methylpiperazine-4-carbonyl)phenylamino)oxazole-4-carboxamide] | < 10 | < 10 | < 10 | –
